From US20220105183A1, “MICRO-NANO STRUCTURE FORMED BY SELF-ASSEMBLING ORGANIC SMALL MOLECULE COMPOUND AND USE THEREOF” (Qingdao University of Science and Technology, priority 2018, published 2022)

Experiments:
Format in all cases: physicochemical
[1] = DLS particle size / self-assembly of the compounds in aqueous solution; details: 20 μM working solution in deionized water; for DLS particle size peak (nm) / DLS particle size range (nm): micro-nano structure
Description: The term “particle size” refers to the size of particles, also known as “granularity” or “diameter”. When a certain physical characteristic or physical behavior of the measured particle is closest to a homogeneous sphere (or combination) of a certain diameter, the diameter (or combination) of the sphere is taken as the equivalent particle size of the measured particle. The particle size parameter of the micro-nano structure of the present invention is measured by the principle of dynamic light scattering (DLS), specifically measured by a laser particle size analyzer.
(§1) Taking the self-assembled micro-nano structure of Compound II-1 as an example, II-1 was dissolved in DMSO (also can be an organic solvent such as ethanol) to prepare a 2 mM storage solution, and a small amount of storage solution was added to deionized water to prepare 20 μM working solution. Took 10 μL and dropped it on copper mesh, observed and analyzed under transmission electron microscope (TEM), cryo-transmission electron microscope. Took 10 μL and dropped it on mica plate, observed and analyzed under atomic force microscope (AFM). In FIGS. 5, A, B, C and D were TEM photographs, cryo-transmission electron microscope photographs, AFM photographs, and AFM analysis data, respectively. According to the photographs and data, II-1 was self-assembled into nanosheets with a diameter of 40-70 nm and a thickness of 3.7-3.9 nm. […]
Among them, the particle size test results of II-12 to II-15 in aqueous solution are shown in FIG. 6, and the results of dynamic light scattering DLS of II-16 to 1-18 are shown in FIG. 7).

[2] = Photothermal stability, repeated 808 nm irradiation and cooling; details: for reduction of absorbance after 5 times of irradiation: ultraviolet spectra before and after
Description: We selected sample No. 3 to test the photothermal stability experiment. As shown in the right figure of FIG. 8, sample No. 3 was irradiated with 808 nm laser for 9 minutes and then the temperature increased from room temperature 30° C. to 62° C., and then allowed to naturally cool down to room temperature, and irradiated with 808 nm laser again for 9 minutes, then naturally cooled down, and repeated for 5 times. […] After 9 minutes of irradiation, the temperature was raised by […], and then returned to room temperature.

[3] = TEM, cryo-TEM and AFM of the self-assembled micro-nano structure; details: micro-nano structure in aqueous solution, AFM and TEM
Description: as §1

[4] = Photothermal effect in vitro under 808 nm laser irradiation; details: for light-to-heat conversion efficiency: 20 μM in water; for light-to-heat conversion efficiency / photothermal effect: 808 nm (2.6 W/cm-2) laser 10 minutes; for temperature rise: 40 μM in water, 808 nm (2.6 W/cm-2) laser, within 10 minutes; for photothermal effect: in water
Description: A total of 4 groups of samples, 3 mL was taken and added to a cuvette respectively, and the lid was sealed.
The sample No. 2 was 10 μM II-1, and the specific preparation method is 3 mL deionized water plus 15 μL II-1 stock solution (2 mM, dissolved in DMSO);
The sample No. 3 was 20 μM II-1, and the specific preparation method was that 3 mL deionized water was added 30 μL II-1 stock solution (2 mM, dissolved in DMSO);
The sample No. 4 was 40 μM II-1, and the specific preparation method was that 3 mL deionized water was added 60 μL II-1 stock solution (2 mM, dissolved in DMSO).
Each sample was irradiated with an 808 nm laser for 5 minutes, and the temperature data was recorded every 5 seconds with a thermal imager, and the temperature corresponding to the time was plotted in origin, as shown in the left figure of FIG. 8. […] The temperature of sample No. 2 increased from room temperature 30° C. to 54° C., and the temperature was raised by 24° C. The temperature of sample No. 3 increased from room temperature 30° C. to 62° C., and the temperature was raised by 32° C. The temperature of sample No. 4 increased from room temperature 30° C. to 77° C., and the temperature was raised by 47° C.
Using a method similar to Example 8, 10 μM, 20 μM and 40 μM samples of II-16, II-17 and II-18 were prepared, respectively, they were irradiated under an 808 nm (2.6 W/cm-2) laser for 10 minutes. 40 μM II-16 to 18 samples can rise by 40° C., 36° C. and 18° C. respectively within 10 minutes under laser irradiation.
Using a method similar to that in Example 8, three samples of 20 μM of 1-16, II-17 and II-18 in water were irradiated with 808 nm (2.6 W/cm-2) laser for 10 minutes, and the light-to-heat conversion efficiency calculation result thereof were shown in FIG. 10. […] And II-18 not only has poor light-heat effect, but also has low light-heat conversion efficiency, only 12.9%.

[5] = Assembly stability in different media
Description: Since II-16 has excellent photothermal properties, its assembly stability in serum-containing medium and in PBS at different temperatures was tested, as shown in FIG. 13.

[6] = 808 nm laser at 2.6 W/cm-2, irradiated and cooled 5 times

particle size by DLS [1]	temperature raised by, first irradiation ([2]; 808 nm laser, after 9 minutes of irradiation)	temperature on laser irradiation again ([2]; after return to room temperature, second irradiation)	DLS particle size peak (nm) [1]	DLS particle size range (nm) [1]	Morphology [3]	light-to-heat conversion efficiency [4]	temperature rise [4]	photothermal effect [4]	reduction of absorbance after 5 times of irradiation [2, 6]	absorbance over time ([5]; at 37° C.)	SMILES	temperature in repeated irradiations [2, 6]	aggregation mode (H aggregation) ([5]; serum-containing medium and PBS at different temperatures)
–	–	–	60 nm	40-110 nm	nano-sheet	–	–	–	–	–	C#CCOc1ccc(C2CC(=CC=C3N(CC)c4ccccc4C3(C)C)C(NCCn3ccnc3[N+](=O)[O-])=C(C=CC3=C(C#N)C(=C(C#N)C#N)OC3(C)C)C2)cc1 (centres unmarked) [II-15]	–	–
–	–	–	199 nm	163-293 nm	nano-sheet	56.9%	40 °C	excellent photothermal effect	2%	the absorbance will decrease with time	CCn1c(=CC=C2CCCC(C=CC3=C(C#N)C(=C(C#N)C#N)OC3(C)C)=C2Cl)c2cccc3cccc1c32 [II-16]	each time the temperature can rise to the same temperature as the first time	will not change due to changes in external conditions
–	–	–	10 nm	10-86 nm	nano-sheet	25%	36 °C	excellent photothermal effect	75%	–	CCN1C(=CC=C2CCCC(C=CC3=C(C#N)C(=C(C#N)C#N)OC3(C)C)=C2Cl)Sc2ccccc21 [II-17]	–	–
–	–	–	42 nm	42-139 nm	nano-sheet	12.9%	18 °C	poor photothermal effect	–	–	CCN(CC)c1ccc2c(c1)OC1=C(C=C3CCCC(C=CC4=C(C#N)C(=C(C#N)C#N)OC4(C)C)=C3Cl)CCCC1=C2 [II-18]	–	–

The remaining lines, values behind:

SMILES	particle size by DLS [1]	temperature raised by, first irradiation ([2]; 808 nm laser, after 9 minutes of irradiation)	temperature on laser irradiation again ([2]; after return to room temperature, second irradiation)	DLS particle size peak (nm) [1]	DLS particle size range (nm) [1]	Morphology [3]	light-to-heat conversion efficiency [4]	temperature rise [4]	photothermal effect [4]	reduction of absorbance after 5 times of irradiation [2, 6]	absorbance over time ([5]; at 37° C.)	temperature in repeated irradiations [2, 6]	aggregation mode (H aggregation) ([5]; serum-containing medium and PBS at different temperatures)
CC1(C)C(/C=C/C=C/C=C/C=C2\N(CCCCS(=O)(=O)[O-])c3ccc4ccccc4c3C2(C)C)=[N+](CCCCS(=O)(=O)[O-])c2ccc3ccccc3c21.[Na+] [ICG, reference compound]	could not be detected	15 °C	the temperature cannot be increased	–	–	–	–	–	–	–	–	–	–
C=CCOc1ccc(C2CC(=CC=C3N(CC)c4ccccc4C3(C)C)C(Cl)=C(C=CC3=C(C#N)C(=C(C#N)C#N)OC3(C)C)C2)cc1 (centres unmarked) [II-12]	–	–	–	78 nm	20-160 nm	nano-sheet	–	–	–	–	–	–	–
C#CCOc1ccc(C2CC(=CC=C3N(CC)c4ccccc4C3(C)C)C(Cl)=C(C=CC3=C(C#N)C(=C(C#N)C#N)OC3(C)C)C2)cc1 (centres unmarked) [II-13]	–	–	–	74 nm	40-110 nm	nano-sheet	–	–	–	–	–	–	–
CCN1C(=CC=C2CCCC(C=CC3=C(C#N)C(=C(C#N)C#N)OC3(C)C)=C2Cl)C(C)(C)c2ccc3ccccc3c21 [II-14]	–	–	–	78 nm	27-134 nm	nano-sheet	–	–	–	–	–	–	–
